{"source": "patent US11655236B2", "about": "“Activity-based probe compounds, compositions, and methods of use” (THE BOARD OF TRUSTEES OF THE LELAND STANFORD JUNIOR …, priority 2013, dated 2023)", "test_system": "cysteine cathepsins", "test": "Inhibition of probe labeling in living RAW cells by JPM-OEt pretreatment", "format": "cell-based, mouse", "settings": "pre-treatment of living RAW cells with JPM-OEt (50 μM, 1 hr); labeling by qABP 8", "experimental": "RAW cells were cultured in DMEM (GIBCO) supplemented with 10% fetal bovine serum (FBS; GIBCO), 100 units/mL penicillin and 100 μg/mL streptomycin (GIBCO). 4T1 cells (ATCC) were cultured in RPMI (GIBCO) supplemented with 10% fetal bovine serum (FBS; GIBCO), 100 units/mL penicillin and 100 μg/mL streptomycin (GIBCO). All cells were cultured in a 5% CO2 humidified incubator at 37° C. For intact cell labeling, cells were exposed to probe (500× in DMSO) in culture media and incubated for 2 hr at 37° C., unless stated otherwise. Where indicated the cells were preincubated for 1 hr with the inhibitor JPM-OEt (500× in DMSO) or exposed to mouse serum (1 μl probe stock solution in DMSO added to 9 μl serum) for 4 hr before addition to the cells. After labeling, the cells were washed with PBS and resuspended in hypotonic lysis buffer (50 mM PIPES pH 7.4, 10 mM KCl, 5 mM MgCl2, 2 mM EDTA, 4 mM DTT, and 1% NP-40) and put on ice for 15 min, centrifuged at 4° C. for 30 min and supernatants were collected, and protein concentration was determined using a BCA kit (pierce). […] Labeling intensities were quantified using Image J software. […] After 15 min on ice and centrifugation at 4° C. for 30 min the supernatants were collected, and protein concentration was determined using a BCA kit (pierce). […] 4×SDS-sample buffer was added and the protein was denatured for 3 min at 100° C. and analyzed as described above. […]"}
{"substance": "JPM-OEt", "values": [{"measurement": "blocking of probe labeling", "result": "more than 90%"}]}
